Article PMC8284453 (Antimicrobial Agents and Chemotherapy, 2021)
≈ marks a conversion by molar mass, not a printed value. Where “and” joins values, the source holds several entries; their conditions need not be identical. Equal entries are not always repeated. Where two headings read alike, the source gives them in different places.

Key:
[1] = tested on: Enterobacterales expressing class D oxacillinases (OXA-48/48-like); assay: organism not typed; format: cell-based, E. coli, K. pneumoniae; conditions: K. pneumoniae SI-C17 (OXA-48)
[2] = tested on: isogenic strains of E. coli expressing Ambler class A, B, C, and D enzymes; assay: microbe, parasite or virus in culture; format: cell-based, Escherichia coli
E. coli ESBL4 (CTX-M-15) [3] = assay: Broth microdilution MIC; format: cell-based; conditions: Escherichia coli
[4] = tested on: E. cloacae ECL01 (TEM-72, ACT-1, P99AmpC); assay: Broth microdilution MIC; format: cell-based; conditions: Enterobacter cloacae
[5] = tested on: K. pneumoniae ATCC BAA-1705 (KPC-2); assay: Broth microdilution MIC; format: cell-based; conditions: Klebsiella pneumoniae, ATCCBAA1705
[6] = tested on: K. pneumoniae 752286 (OXA-48); assay: Broth microdilution MIC; format: cell-based; conditions: Klebsiella pneumoniae
[7] = tested on: E. cloacae ECL01 (TEM-72, ACT-1, P99AmpC); assay: 24-h time-kill assay; format: cell-based; conditions: Enterobacter cloacae; lowest concentration with ≥3-log10 CFU/ml reduction at 24 h; read-out: MBC
Procedure: (§1) In vitro antibacterial time-kill assay. […] Time-kill assays were performed in 14 ml glass tubes or deep-well storage plates with a bacterial inoculum in CAMHB of 5 × 10^5 CFU/ml. The tubes/plates were incubated at 37°C with shaking at 200 rpm, and aliquots were drawn at six time points (0, 2, 4, 6, 8, and 24 h) to conduct 0.5 log10 dilutions in CAMHB in 96-well plates that were incubated overnight at 37°C and used to ascertain viable bacterial counts. The lowest quantifiable amount by this method is 2 log10 CFU/ml.

E. coli ESBL4 (CTX-M-15) [8] = assay: 24-h time-kill assay; format: cell-based
Procedure: as §1

[9] = tested on: K. pneumoniae 752286 (OXA-48); assay: 24-h time-kill assay; format: cell-based; conditions: Klebsiella pneumoniae, 24 h
Procedure: as §1

[10] = tested on: K. pneumoniae ATCC BAA-1705 (KPC-2); assay: 24-h time-kill assay; format: cell-based; conditions: Klebsiella pneumoniae, ATCCBAA1705; lowest concentration with ≥3-log10 CFU/ml reduction at 24 h; read-out: MBC
Procedure: as §1

[11] = tested on: Enterobacterales expressing class C cephalosporinases
[12] = tested on: Enterobacterales expressing class C cephalosporinases; assay: organism not typed

Nc1nc(/C(=C/CC(=O)O)C(=O)N[C@@H]2C(=O)N3C(C(=O)O)=CCS[C@H]23)cs1 [CTB, ceftibuten]
MIC [1]: ≥ 64 µg/mL | Fold increase in MIC compared to vector control [2]: 16 and 32 | Fold increase in MIC compared to vector control ([2]; E. coli expressing ACT-17 (class C), inhibitor fixed at 4 μg/ml): 1,024 | Fold increase in MIC compared to vector control ([2]; E. coli expressing CMY-2 (class C), inhibitor fixed at 4 μg/ml): 1,024 | Fold increase in MIC compared to vector control ([2]; E. coli expressing CMY-42 (class C), inhibitor fixed at 4 μg/ml): ≥1,024 | Fold increase in MIC compared to vector control ([2]; E. coli expressing CTX-M-15 (class A), inhibitor fixed at 4 μg/ml): 64 | Fold increase in MIC compared to vector control ([2]; E. coli expressing GES-5 (class A), inhibitor fixed at 4 μg/ml): 8 | Fold increase in MIC compared to vector control ([2]; E. coli expressing NDM-1 (class B), inhibitor fixed at 4 μg/ml): ≥1,024 | Fold increase in MIC compared to vector control ([2]; E. coli expressing OXA-23 (class D), inhibitor fixed at 4 μg/ml): 2 | Fold increase in MIC compared to vector control ([2]; E. coli expressing OXA-48 (class D), inhibitor fixed at 4 μg/ml): 4 | Fold increase in MIC compared to vector control ([2]; E. coli expressing OXA-163 (class D), inhibitor fixed at 4 μg/ml): 32 | Fold increase in MIC compared to vector control ([2]; E. coli expressing OXA-181 (class D), inhibitor fixed at 4 μg/ml): 2 | Fold increase in MIC compared to vector control ([2]; E. coli expressing P99/AmpC (class C), inhibitor fixed at 4 μg/ml): ≥1,024 | Fold increase in MIC compared to vector control ([2]; E. coli expressing PER-1 (class A), inhibitor fixed at 4 μg/ml): 1,024 | Fold increase in MIC compared to vector control ([2]; E. coli expressing SHV-5 (class A), inhibitor fixed at 4 μg/ml): 128 | Fold increase in MIC compared to vector control ([2]; E. coli expressing SHV-12 (class A), inhibitor fixed at 4 μg/ml): 256 | Fold increase in MIC compared to vector control ([2]; E. coli expressing TEM-10 (class A), inhibitor fixed at 4 μg/ml, modal MIC, 4 replicates): 4 | Fold increase in MIC compared to vector control ([2]; E. coli expressing VEB-9 (class A), inhibitor fixed at 4 μg/ml): ≥1,024 | MIC ([2]; Escherichia coli, read-out: Vector control MIC): 1 µg/mL (≈ 2.44 µM) | MIC (E. coli ESBL4 (CTX-M-15) [3]): 32 µg/mL (≈ 78 µM) | MIC [4]: 64 µg/mL (≈ 156 µM) | MIC [5]: 16 µg/mL (≈ 39 µM) | MIC [6]: 128 µg/mL (≈ 312 µM) | MBC [7]: > 32 µg/mL | MBC (E. coli ESBL4 (CTX-M-15) [8]; Escherichia coli, lowest concentration with ≥3-log10 CFU/ml reduction at 24 h, read-out: MBC): > 32 µg/mL | outcome of 24-h time-kill assay (E. coli ESBL4 (CTX-M-15) [8]; Fig. 3a, CTB 2 μg/ml with BLI at 4 μg/ml, CTB alone 8 μg/ml, amoxicillin 8/clavulanic acid 4 μg/ml, penems 2 μg/ml): initial killing, but the strains grew to control levels by 24 h | MBC [9]: ≥ 128 µg/mL | MBC [10]: 16 µg/mL (≈ 39 µM) | MIC90 ([11]; 25 isolates, BLI fixed at 4 μg/ml, AMC 2:1): ≥ 64 µg/mL | MIC ([11]; C. freundii 134390 (AmpC, TEM-1)): 4 µg/mL (≈ 9.75 µM) | MIC ([11]; E. aerogenes 110099 (AmpC, SHV-12)): 32 µg/mL (≈ 78 µM) | MIC ([11]; E. aerogenes 111707 (AmpC, TEM-1)): 2 µg/mL (≈ 4.87 µM) | MIC ([11]; E. aerogenes 111902 (AmpC, TEM-1)): ≥ 64 µg/mL | MIC ([11]; E. coli 128 (AmpC, SHV-12, TEM-1, Toho-2)): 2 µg/mL (≈ 4.87 µM) | MIC ([11]; E. coli 3102 (AmpC, CTX-M-15, TEM-1)): 32 µg/mL (≈ 78 µM) | MIC ([11]; E. coli CH1 (AmpC, CTX-M-15, SHV-1, SHV-5, TEM-1)): ≥ 64 µg/mL | MIC ([11]; E. coli EC469 (AmpC, SHV-12, TEM-1)): 2 µg/mL (≈ 4.87 µM) | MIC ([11]; E. coli J53 (AmpC, SHV-5, TEM-1)): 8 µg/mL (≈ 19.5 µM) | MIC ([11]; E. coli SI-P026TC (CMY-2, TEM-1)): ≥ 64 µg/mL | MIC ([11]; E. coli SI-PO26 (AmpC, CMY-2, TEM-1)): ≥ 64 µg/mL | MIC ([11]; K. pneumoniae 129032 (MOX-2, SHV-12, TEM-1)): 16 µg/mL (≈ 39 µM) | MIC ([11]; K. pneumoniae 178279 (AmpC, SHV-12, TEM-1)): 8 µg/mL (≈ 19.5 µM) | MIC ([11]; K. pneumoniae 212027 (AmpC, FOX-5, TEM-1)): 16 µg/mL (≈ 39 µM) | MIC ([11]; K. pneumoniae 217917 (CMY-2, TEM-1)): 8 µg/mL (≈ 19.5 µM) | MIC ([11]; K. pneumoniae 301313 (AmpC, SHV-12, TEM-1)): ≥ 64 µg/mL | MIC ([11]; K. pneumoniae 398845 (CMY-2, SHV-12, TEM-1)): 16 µg/mL (≈ 39 µM) | MIC ([11]; K. pneumoniae SI-F100 (CMY-2, SHV-5, TEM-1)): 2 µg/mL (≈ 4.87 µM) | MIC ([11]; P. mirabilis SI-F014 (AmpC, TEM-72)): ≥ 64 µg/mL | MIC ([11]; S. marcescens 132253 (AmpC, CTX-M-3, OXA-1, SHV-12, TEM-1)): ≥ 64 µg/mL | MIC ([11]; S. marcescens 134434 (AmpC, SHV-12, TEM-1)): 32 µg/mL (≈ 78 µM) | MIC ([11]; S. marcescens 142397 (AmpC, SHV-7, TEM-1)): ≥ 64 µg/mL | MIC ([11]; S. marcescens 156212 (AmpC, SHV-12, TEM-1)): 8 µg/mL (≈ 19.5 µM) | MIC ([11]; S. marcescens 192478 (AmpC, SHV-12, TEM-1)): 8 µg/mL (≈ 19.5 µM) | MIC ([11]; S. marcescens 218068 (AmpC, SHV-7, TEM-1)): 32 µg/mL (≈ 78 µM) | MIC50 [12]: 16 µg/mL (≈ 39 µM) | MIC90 [12]: ≥ 64 µg/mL
